Results on 24 molecules are retold here after US20110071197A1, “BIS-ARYL COMPOUNDS FOR USE AS MEDICAMENTS” (priority 2008, published 2011).

The inhibition is the relative decrease from the control value, in per cent.

Molecules are shown by their SMILES.

In the assay the target is T1, Recombinant human LTC4 synthase (Homo sapiens, UniProt Q16873).
T1 construct: made in house; host or cells: Pichia pastoris
T1 sequence (Q16873 1-150): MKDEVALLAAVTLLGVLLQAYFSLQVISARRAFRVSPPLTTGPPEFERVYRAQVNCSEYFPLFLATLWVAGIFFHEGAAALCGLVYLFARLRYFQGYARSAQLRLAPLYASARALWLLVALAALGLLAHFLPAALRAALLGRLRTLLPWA
Kind of assay: LTC4 synthase in vitro assay (HTRF detection of LTC4). It is filed as biochemical. Conditions: total concentration of title compound in the assay 10 μM; HTRF method. The procedure, abridged: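 Pichia-expressed recombinant human LTC4 synthase at 0.5 μg/ml total protein in PBS pH 7.4 with 5 mM GSH, preincubated 10 min at RT with inhibitor (10 μM final). LTA4 (2.5 μM final) was then added for 5 min at RT. LTC4 formed was read by HTRF.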
On the technique in general: TR-FRET usually uses a lanthanide donor and a delayed reading to cut background.

Take `O=C(NS(=O)(=O)c1ccc(F)c(F)c1)c1cccc(Oc2ccc(Nc3ccc(Cl)cc3)c(C(=O)O)c2)c1` [20:2, 2-(4-Chloro-phenylamino)-5-[3-(3,4-difluoro-benzenesulfonylamino-carbonyl)-phenoxy]-benzoic acid]: the inhibition at 10 µM was 96%. With `O=C(NS(=O)(=O)c1cccc(Cl)c1F)c1cccc(Oc2ccc(Nc3ccc(Cl)cc3)c(C(=O)O)c2)c1` [20:3, 5-[3-(3-Chloro-2-fluoro-benzene-sulfonylaminocarbonyl)-phenoxy]-2-(4-chloro-phenylamino)-benzoic acid], the inhibition at 10 µM was 97%. Regarding `CCCCOc1ccc(S(=O)(=O)Nc2ccc(Oc3cccc(C(=O)NS(=O)(=O)c4ccc(F)cc4)c3)cc2C(=O)OC(C)(C)C)cc1` [20:4, 2-(4-Butoxy-benzenesulfonylamino)-5-[3-(4-fluoro-benzenesulfonylamino-carbonyl)-phenoxy]-benzoic acid t-butyl ester], the inhibition at 10 µM is 99%.

In the case of `CCCCOc1ccc(S(=O)(=O)Nc2ccc(Oc3cccc(C(=O)NS(=O)(=O)c4ccc(F)c(F)c4)c3)cc2C(=O)O)cc1` [20:5, 2-(4-Butoxy-benzenesulfonylamino)-5-[3-(3,4-difluoro-benzenesulfonyl-aminocarbonyl)-phenoxy]-benzoic acid], the inhibition at 10 µM is 97%.

Consider `CC(C)(C)OC(=O)c1cc(Oc2cccc(C(=O)NS(=O)(=O)c3ccc(F)c(F)c3)c2)ccc1Nc1ccc(Cl)cc1` [20:6, 2-(4-Chloro-phenylamino)-5-[3-(3,4-difluoro-benzenesulfonylamino-carbonyl)-phenoxy]-benzoic acid t-butyl ester], for which the inhibition at 10 µM was determined as 100%.

Take `CCCCOc1ccc(S(=O)(=O)Nc2ccc(Oc3cccc(C(=O)NS(=O)(=O)c4ccc(F)cc4)c3)cc2C(=O)O)cc1` [20:7, 2-(4-Butoxy-benzenesulfonylamino)-5-[3-(4-fluoro-benzenesulfonylamino-carbonyl)-phenoxy]-benzoic acid]: the inhibition at 10 µM worked out at 94%. Regarding `O=C(NS(=O)(=O)c1ccc(F)cc1)c1cccc(Oc2ccc(Nc3ccc(Cl)cc3)c(C(=O)O)c2)c1` [20:8, 5-[3-(4-Fluorobenzenesulfonyl-aminocarbonyl)-phenoxy]-2-(4-chloro-phenylamino)-benzoic acid], the inhibition at 10 µM was 96%. For the molecule `CCCCOc1ccc(S(=O)(=O)NC(=O)c2cccc(Oc3ccc(Nc4ccc(Cl)cc4)c(C(=O)O)c3)c2)cc1` [20:9, 5-[3-(4-Butoxy-benzenesulfonyl-aminocarbonyl)-phenoxy]-2-(4-chloro-phenylamino)-benzoic acid], the inhibition at 10 µM was determined as 100%. For `Cc1nc(C(F)(F)F)ccc1C(=O)Nc1ccc(Oc2ccc(NS(=O)(=O)c3ccc(F)c(Cl)c3)c(C(=O)O)c2)cc1` [21:1, 2-(3-Chloro-4-fluoro-benzenesulfonylamino)-5-{4-[(2-methyl-6-trifluoromethyl-pyridine-3-carbonyl)-amino]-phenoxy}-benzoic acid], the inhibition at 10 µM was 100%. As for `Cc1nc(C(F)(F)F)ccc1C(=O)Nc1ccc(Oc2ccc(NS(=O)(=O)c3cc(Cl)cc(Cl)c3O)c(C(=O)O)c2)cc1` [21:2, 2-(3,5-Dichloro-2-hydroxy-benzene-sulfonylamino)-5-{4-[(2-methyl-6-trifluoromethyl-pyridine-3-carbonyl)-amino]-phenoxy}-benzoic acid], the inhibition at 10 µM stood at 98%. Consider `COc1ccc(S(=O)(=O)Nc2ccc(Oc3ccc(N(C)C(=O)c4ccc(C(C)(C)C)cc4)cc3)cc2C(=O)O)cc1` [21:3, 5-{4-[(4-t-Butyl-benzoyl)-methyl-amino]-phenoxy}-2-(4-methoxy-benzenesulfonylamino)-benzoic acid], for which the inhibition at 10 µM is 99%. On to `CCCCOc1ccc(S(=O)(=O)Nc2ccc(Oc3ccc(NC(=O)c4ccccc4)cc3)cc2C(=O)O)cc1` [21:4, 5-(4-benzoylamino-phenoxy)-2-(4-butoxy-benzenesulfonylamino)-benzoic acid], for which the inhibition at 10 µM turned out to be 100%. On to `CCCCOc1ccc(S(=O)(=O)Nc2ccc(Oc3cccc(NCc4cccc(F)c4F)c3)cc2C(=O)O)cc1` [23:1, 2-(4-Butoxybenzenesulfonylamino)-5-[3-(2,3-difluorobenzylamino)-phenoxy]benzoic acid], for which the inhibition at 10 µM came out at 100%. With `CCCCOc1ccc(S(=O)(=O)Nc2ccc(Oc3cccc(NCc4cccc(OC)c4OC)c3)cc2C(=O)O)cc1` [23:2, 2-(4-Butoxybenzenesulfonylamino)-5-[3-(2,3-dimethoxybenzylamino)-phenoxy]benzoic acid], the inhibition at 10 µM is 99%.

Take `CCCCOc1ccc(S(=O)(=O)Nc2ccc(Oc3cccc(NCc4cccc(Cl)c4Cl)c3)cc2C(=O)O)cc1` [23:3, 2-(4-Butoxybenzenesulfonylamino)-5-[3-(2,3-dichlorobenzylamino)-phenoxy]benzoic acid]: the inhibition at 10 µM came out at 98%. With `CCCCOc1ccc(S(=O)(=O)Nc2ccc(Oc3cccc(NCc4cccc(Cl)c4F)c3)cc2C(=O)O)cc1` [23:4, 2-(4-Butoxybenzenesulfonylamino)-5-[3-(3-chloro-2-fluorobenzylamino)-phenoxy]benzoic acid], the inhibition at 10 µM amounted to 99%. Consider `O=C(O)c1cc(Oc2cccc(NCc3cccc(Cl)c3F)c2)ccc1NS(=O)(=O)c1ccc(Cl)cc1Cl` [23:5, 5-[3-(3-Chloro-2-fluorobenzylamino)-phenoxy]-2-(2,4-dichlorobenzene-sulfonylamino)benzoic acid], for which the inhibition at 10 µM stood at 98%. On to `CCCCN(c1ccc(Oc2ccc(Nc3ccc(F)c(F)c3)c(C(=O)O)c2)cc1)c1ccc(F)c(F)c1` [24:1, 5-{4-[n-Butyl-(3,4-difluorophenyl)-amino]phenoxy}-2-(3,4-difluoro-phenylamino)benzoic acid], for which the inhibition at 10 µM was determined as 93%. For the molecule `CCCCN(c1ccc(Oc2ccc(Nc3ccc(Cl)cc3)c(C(=O)O)c2)cc1)c1ccc(F)c(F)c1` [24:2], the “% inh.” value is 95%. Regarding `O=C(Nc1ccc(C(F)(F)F)cc1)Nc1ccc(Oc2ccc(S(=O)(=O)Nc3ccc(Cl)cc3)cc2)cc1C(=O)O` [25:1, 5-[4-(4-Chlorophenylsulfamoyl)-phenoxy]-2-[3-(4-trifluoromethyl-phenyl)ureido]benzoic acid], the inhibition at 10 µM was determined as 98%. Regarding `CCCCOc1ccc(S(=O)(=O)Nc2ccc(Oc3ccc(S(=O)(=O)Nc4ccc(Cl)cc4)cc3)cc2C(=O)O)cc1` [25:2, 2-(4-Butoxy-benzenesulfonyl-amino)-5-[4-(4-chlorophenylsulfamoyl)phenoxy]benzoic acid], the inhibition at 10 µM came to 100%. In the case of `CCCCOc1ccc(S(=O)(=O)Nc2ccc(Oc3ccc(S(=O)(=O)Nc4ccc(F)c(F)c4)cc3)cc2C(=O)O)cc1` [25:3, 2-(4-Butoxybenzenesulfonyl-amino)-5-[4-(3,4-difluorophenyl-sulfamoyl)phenoxy]benzoic acid], the inhibition at 10 µM is 100%. Turning to `O=C(Nc1ccc(Oc2ccc(S(=O)(=O)Nc3ccc(F)c(F)c3)cc2)cc1C(=O)O)c1ccc(Cl)cc1Cl` [25:4, 2-(2,4-Dichlorobenzoylamino)-5-[4-(3,4-difluorophenylsulfamoyl)-phenoxy]benzoic acid], the inhibition at 10 µM is 100%. As to `O=C(O)c1cc(Oc2ccc(S(=O)(=O)Nc3ccc(F)c(F)c3)cc2)ccc1NC(=O)c1cccc(Cl)c1Cl` [25:5, 2-(2,3-Dichlorobenzoylamino)-5-[4-(3,4-difluorophenylsulfamoyl)-phenoxy]benzoic acid], the inhibition at 10 µM was 100%.
